The nature of series [1]: Remarks on the hydrochloride (Table I). The class given is physicochemical. The settings on record: hydrochloride column of Table I.
Series [2] can be described thus: Toxicity: LD50 in mice, intraperitoneal route (Log-Probits method of Miller and Tainter). The settings on record: mouse, in vivo, IP. Here is the method:
The LD50 of the products was measured in mice by the intraperitoneal route in accordance with the "Log-Probits" method of Miller and Tainter (Proc. Soc. Exptl. Biol. Med. 1944; 57, 261-264).

The test system of series [3] is narcosis produced by hexobarbital. Put plainly: Modification of narcosis produced by hexobarbital. Type of series: in vivo. The settings on record: Mus musculus, 0.5 h, mice, half an hour before hexobarbital 70 mg/kg, read-out: Narcosis potentialisation T (percentage increase in sleeping time induced by hexobarbital); for change in vivo at 200 mg/kg: 200 mg/kg IP; for change in vivo at 100 mg/kg: 100 mg/kg IP. Here is the method:
Mice, each weighing about 20 g, received the product under investigation by the intraperitoneal route. Half an hour later sodium hexobarbital was injected by the same route at a dosage of 70 mg/kg.
The animals were placed on a hot plate kept at a constant temperature of 27° C. It is considered that sleep is established when a mouse, placed in the dorsal decubitus, is incapable of turning over and standing on its paws.
The narcosis potentialisation is evaluated by the percentage increase in sleeping time induced by hexobarbital (T).

For series [4], the system named is attack caused by pentetrazol. The series can be described thus: Anti-convulsant action: attack caused by pentetrazol. Type of series: in vivo. The conditions noted are these: mice, 30 min before pentetrazol 125 mg/kg IP.
Procedure: A convulsive attack is caused by pentetrazol which, when injected into mice intraperitoneally at a dosage of 125 mg/kg, produces 100% mortality in 5 to 7 minutes.
Mice, each weighing about 20 g, are given the product being studied intraperitoneally, thirty minutes before the administration of pentetrazol.
Series [5] deals with epileptic attack by electric shock. Put plainly: Anti-convulsant action: electric shock. The settings on record: Rattus norvegicus, 0.5 h, male rats, 30 min before 30 volts for 0.5 second, read-out: Electric shock: percentage protection (P); for responders at 200 mg/kg: 200 mg/kg IP; for responders at 100 mg/kg: 100 mg/kg IP. Type of series: in vivo. As for the experimental part:
The application of an electric current of 30 volts for 0.5 second to the cerebral hemispheres produces an epileptic attack.
Male rats each weighing 180 to 200 g receive intraperitoneally the solvent or the product being investigated. Thirty minutes later the animals are subjected to electric shocks. It is noted whether the attack is complete or incomplete, and the percentage protection (P) conferred by the product administered is determined.

Series [6] deals with blepharospasm caused by reserpine. Put plainly: Antagonism to reserpine (blepharospasm). The conditions noted are these: male Swiss mice, before reserpine 5 mg/kg IP. Type of series: in vivo. Details: key: The inhibition of blepharospasm is marked from 0 to +++; ±: The inhibition of blepharospasm is marked from 0 to +++; The inhibition of blepharospasm is marked from 0 to +++; The inhibition of blepharospasm is marked from 0 to +++. Here is the method: (Chen G., and Bohner B., (1961) J. pharmacol. Exptl. Therap. 131, 179).
Reserpine administered to mice in a dosage of 5 mg/kg intraperitoneally produces in the first few hours a more or less complete closure of the eyelids in most of the animals. The administration of certain products inhibits the blepharospasm caused by reserpine.
Male Swiss mice are distributed into batches of 10 mice and each experiment involves at least 3 batches:
a control batch that receives only the solvent and reserpine
a batch treated with a reference product: we selected Imipramine
a treated batch receiving the product being tested.
The experimental products are administered intraperitoneally either 30 minutes or 2 hours before the intraperitoneal injection of reserpine at a dosage of 5 mg/kg, in order to study their activity as a function of time.
The degree of ptosis for each eye and each animal is observed every 30 minutes for 4 to 5 hours, using RUBIN's score method. The activity of the product is determined by comparison with the result obtained with the treated control batch. The inhibition of blepharospasm is marked from 0 to +++.

Series [7] has as its system central nervous system. The series can be described thus: Activity on the central nervous system (overall conclusion of the pharmacological tests). The class given is in vivo. The conditions noted are these: conclusion in words. An excerpt:
This was investigated by observing the behaviour of animals, by studying the modifications in narcosis produced by hexobarbital and studying the anti-convulsant power.

Where [8] appears, read: Mus musculus, 0.5 h, 200 mg/kg IP, read-out: Pentrazole: percentage protection (P).

In the case of `OC(C=Cc1ccc2c(c1)OCO2)CCCN1CCCCC1` (centres unmarked) [AB 754], in series [1], the Hygroscopicity of hydrochloride result is “hygroscopic”.

For orientation: LD50 means the dose at which mortality reaches 50%. `O=C(C=Cc1ccc2c(c1)OCO2)CN1CCOCC1` [compound 996]: in series [2], the LD50 is 750 mg/kg. In series [3] (75 mg/kg IP), the change in vivo at 75 mg/kg turned out to be 106%. In addition, the responders at 75 mg/kg came out at 0% in series [4] (Mus musculus, 0.5 h, 75 mg/kg IP, read-out: Pentrazole: percentage protection (P)) and 50% in series [5] (75 mg/kg IP). The “Inhibition of blepharospasm caused by reserpine” value (from here on “Inhibition”) in series [6] (75 mg/kg IP) is reported as “+”. Besides, the Usefulness as anti-depressants result in series [7] is “particularly useful as anti-depressants”.

`OC(C=Cc1ccc2c(c1)OCO2)CN1CCOCC1` (centres unmarked) [compound 997]: the LD50 in series [2] stood at 500 mg/kg. Further, the change in vivo at 50 mg/kg in series [3] (50 mg/kg IP) was 0%. Besides, the responders at 50 mg/kg came to 0% in series [4] (Mus musculus, 0.5 h, 50 mg/kg IP, read-out: Pentrazole: percentage protection (P)) and 60% in series [5] (50 mg/kg IP). The “Pentrazole: time of death as multiple of that (t) of the control group” value (“Pentrazole: time of death” for short) in series [4] (50 mg/kg IP) turned out to be 2 t ×. In series [6] (50 mg/kg IP), the “Inhibition” value is listed as “+++”. In addition, in series [7], the Usefulness as anti-depressants entry is reported as “particularly useful as anti-depressants”.

In series [2], `CC(C)=CCCC(=O)C=Cc1ccc2c(c1)OCO2` [compound 998] gave an LD50 of 2000 mg/kg. Further, in series [3], the change in vivo at 200 mg/kg was determined as 490%. Besides, the values for the responders at 200 mg/kg in series [4] (setting [8]) and in series [5] were 0% and 30%, respectively. For the same molecule, the “Inhibition” value in series [6] (200 mg/kg IP) worked out at 0.

In turn, `CC(C)=CCCC(O)C=Cc1ccc2c(c1)OCO2` (centres unmarked) [compound 999] showed an LD50 in series [2] of 1000 mg/kg. The change in vivo at 100 mg/kg in series [3] came out at 201%. Further, the responders at 100 mg/kg in series [4] (Mus musculus, 0.5 h, 100 mg/kg IP, read-out: Pentrazole: percentage protection (P)) is 0%; in series [5], 90%. Also, the “Pentrazole: time of death” value in series [4] (100 mg/kg IP) came to 5 t ×. For the same molecule, the “Inhibition” value in series [6] (50 mg/kg IP) worked out at 0.

As for `CC(C)=CC(=O)C=Cc1ccc2c(c1)OCO2` [compound 1003], the LD50 in series [2] was 2000 mg/kg. The change in vivo at 200 mg/kg in series [3] was found to be 223%. Moreover, the responders at 200 mg/kg in series [4] (setting [8]) and in series [5] was 0% in each case. Also, the “Pentrazole: time of death” value in series [4] (200 mg/kg IP) is on record as 15 t ×. The “Inhibition” value in series [6] (200 mg/kg IP) stood at 0.

In series [2], `O=C(C=Cc1ccc2c(c1)OCO2)C1CCCCC1` [compound 1036] returned an LD50 of 2000 mg/kg. In addition, the change in vivo at 200 mg/kg in series [3] worked out at 135%. Besides, the responders at 200 mg/kg in series [4] (setting [8]) turned out to be 10%; in series [5], 0%. In series [4] (200 mg/kg IP), the “Pentrazole: time of death” value amounted to 2.6 t ×.

As for `OC(C=Cc1ccc2c(c1)OCO2)C1CCCCC1` (centres unmarked) [compound 1037], in series [2], the LD50 came to 1000 mg/kg. Also, the change in vivo at 100 mg/kg in series [3] is 225%. For the same molecule, the responders at 100 mg/kg in series [5] stood at 0%.

Molecule `CC(CN1CCOCC1)C(O)C=Cc1ccc2c(c1)OCO2` (centres unmarked) [compound 1156] showed a median lethal dose (LD50) in series [2] of 600 mg/kg. Also, the change in vivo at 60 mg/kg in series [3] (60 mg/kg IP) is 79%. Moreover, the responders at 60 mg/kg is 10% in series [4] (Mus musculus, 0.5 h, 60 mg/kg IP, read-out: Pentrazole: percentage protection (P)) and 50% in series [5] (60 mg/kg IP). The “Pentrazole: time of death” value in series [4] (60 mg/kg IP) is on record as 1.6 t ×. For the same molecule, the “Inhibition” value in series [6] (60 mg/kg IP) is 0.

Regarding `CC(CN1CCN(C)CC1)C(=O)C=Cc1ccc2c(c1)OCO2` (centres unmarked) [compound 1201], the LD50 in series [2] was 75 mg/kg. In addition, the change in vivo at 7.5 mg/kg in series [3] (7.5 mg/kg IP) came to 17%. For the same molecule, the responders at 7.5 mg/kg in series [4] (Mus musculus, 0.5 h, 7.5 mg/kg IP, read-out: Pentrazole: percentage protection (P)) was determined as 0%; in series [5] (7.5 mg/kg IP), 10%. In addition, in series [4] (7.5 mg/kg IP), the “Pentrazole: time of death” value was 2 t ×. The “Inhibition” value in series [6] (7.5 mg/kg IP) was “±”.

The molecule `CC(CN1CCN(C)CC1)C(O)C=Cc1ccc2c(c1)OCO2` (centres unmarked) [compound 1202] gave an LD50 in series [2] of 250 mg/kg. Also, the change in vivo at 25 mg/kg in series [3] (25 mg/kg IP) is 5%. In addition, the responders at 25 mg/kg is 10% in series [4] (Mus musculus, 0.5 h, 25 mg/kg IP, read-out: Pentrazole: percentage protection (P)) and 10% in series [5] (25 mg/kg IP). The “Pentrazole: time of death” value in series [4] (25 mg/kg IP) is 2 t ×. Also, the “Inhibition” value in series [6] (25 mg/kg IP) turned out to be 0.

Take `CC(C(=O)C=Cc1ccc2c(c1)OCO2)N1CCOCC1` (centres unmarked) [compound 1321]: the LD50 in series [2] was 850 mg/kg. The change in vivo at 85 mg/kg in series [3] (85 mg/kg IP) was found to be 227%. Also, the responders at 85 mg/kg was found to be 20% in series [4] (Mus musculus, 0.5 h, 85 mg/kg IP, read-out: Pentrazole: percentage protection (P)) and 50% in series [5] (85 mg/kg IP). Further, in series [6] (85 mg/kg IP), the “Inhibition” value is recorded as 0.

The molecule `CC(C(O)C=Cc1ccc2c(c1)OCO2)N1CCOCC1` (centres unmarked) [compound 1340] returned an LD50 in series [2] of 400 mg/kg. Moreover, the responders at 40 mg/kg in series [4] (Mus musculus, 0.5 h, 40 mg/kg IP, read-out: Pentrazole: percentage protection (P)) stood at 10%; in series [5] (40 mg/kg IP), 10%.

Values taken from US4209517A, “α-Ethylenic alcohols and ketones, their preparation, and their use as medicaments” (Unicler, priority 1978, dated 1980).
